Laboratory results from paper PMC11345829, “Discovery of Potent Isoquinolinequinone N-Oxides to Overcome Cancer Multidrug Resistance” (Journal of Medicinal Chemistry, 2024).

Key:
NCI-H460 [1] = experiment: NCI60 five-dose GI50 (NCI data); type: cell-based; conditions: Homo sapiens, NCI data provided for comparison, read-out: NSCLC NCI-H460 GI50 (NCI)
Description: (§1) The concentration−response curve generated enables the determination of three criteria, GI50 (drug concentration at which 50% of cell growth is inhibited), total growth inhibition (TGI) and LC50 (drug concentration at which 50% of tumor cells are killed) which can be used to compare effectiveness against any compound tested in the screen since its inception.
(§2) S2.1 NCI Screening Assay Experimental details
(§3) NCI Screening Assay Experimental: Cancer cell growth assays (NCI60 screening) 5,6 One-dose study: Tested compounds were initially solubilised in DMSO, diluted into RPMI 1640 and 5% fetal bovine serum/L-glutamine, and added to 96-well plates containing cell lines previously cultured for 24 h. After 48 h incubation, the media were removed, and the cells were fixed and stained with sulforhodamine B to determine overall percent growth/ total protein content. Unbound dye was removed with five washes of 1% acetic acid, and the plates were allowed to air dry. The dye was then resolubilised in Tris buffer, and the colorimetric absorbance was measured (515 nm). Growth inhibition was measured relative to the response generated from proliferating cells cultured under identical conditions for 48 h. Data from one-dose experiments pertains to the percentage growth at […]
(§4) Five-dose study: Serial 5 × 10-fold dilution from an initial DMSO stock solution was performed, prior to incubation at each individual concentration (10 nM, 100 nM, 1 μM, 10 μM and 100 μM). Using seven absorbance measurements (time zero (Tz), control growth (C), and test growth in the presence of drug at the five concentration levels (Ti)), the percentage growth was calculated at each of the drug concentrations levels. Percentage growth inhibition was calculated as: [(Ti − Tz)/(C − Tz)] × 100 for concentrations for which Ti ≥ Tz, [(Ti − Tz)/Tz] × 100 for concentrations for which Ti < Tz. Three dose response parameters were calculated for each experimental agent. […]
(§5) was calculated from [(Ti − Tz)/(C − Tz)] × 100 = 50, which is the drug concentration resulting in a 50% reduction in the net protein increase (as measured by sulforhodamine B staining) in control cells during the drug incubation. The drug concentration resulting in total growth inhibition (TGI) was calculated from Ti = Tz. The LC50 (concentration of drug resulting in a 50% reduction in the measured protein at the end of the drug treatment as compared to that at the beginning) indicating a net loss of cells following treatment was calculated from [(Ti − Tz)/Tz] × 100 = −50. Values were calculated for each of these three parameters if the level of activity was reached; however, if the effect was not reached or was exceeded, the value for that parameter was expressed as greater or less than the maximum or minimum concentration tested.

DLD1 = experiment: SRB cell growth inhibition assay; type: cell-based; conditions: Homo sapiens, DLD-1, 48 h, colorectal cancer sensitive, mean ± SEM
Description: (§6) Taking into consideration the promising results of preliminary NCI screening, nine compounds (1, 2, 3, 4, 5, 20, 23, 24, 25) were selected for further screening in two counterpart pairs of sensitive and MDR cell lines. […] Two distinct pairs of counterpart drug-sensitive and MDR human tumor cell lines were used, namely the non-small lung cancer (NSCLC) NCI-H460 (same cell line as in the NCI screen) and its MDR counterpart cell line NCI-H460/R and the colorectal cancer DLD1 and its MDR counterpart cell line DLD1-TxR (Table 3). The screening was performed using the SRB assay, and the GI50 for each compound was determined by interpolation on the attained concentration−response curves and compared with NCI60 screening data (SI, Figures S62−S63; Table S21).
(§7) Two pairs of drug-sensitive and multidrug-resistant (MDR) cell lines from human nonsmall cell lung cancer (NSCLC), NCI-H460 and NCI-H460/R, and colorectal cancer, DLD1 and DLD1-TxR, kindly provided by Dr M. Pešić (Belgrade, Serbia), were used to evaluate the growth inhibition potential of the compounds 1, 2, 3, 4, 5, 20, 23, 24, an 25.[76],[77] Additionally, growth inhibition assays were performed with compound 25 on two other NSCLC cell lines, A549 and NCI-H322, obtained from the American Type Culture Collection (ATCC) and the European Collection of Authenticated Cell Cultures, respectively. The A549 cell line was maintained in Dulbecco’s Modified Eagle Medium (DMEM) supplemented with 4.5 g/L Glucose with UltraGlutamine with sodium pyruvate (Lonza, Basel Stücki, Switzerland), enriched with 10% fetal bovine serum (FBS; Biowest, Nuaillé, France). The lung fibroblast MRC-5 cell line and the remaining NSCLC and colorectal cancer cell lines were cultured in Roswell Park Memorial Institute (RPMI) 1640 (with stable glutamine and 25 mM HEPES) medium (Biowest), supplemented with 10% fetal bovine serum. […] For the sulforhodamine B (SRB) and 3D cell culture assays, the media were supplemented with 5% FBS. The remaining experiments were performed with medium supplemented with 10% FBS.
(§8) Cells were seeded at a previously determined optimal cell concentration (5.0 × 10^4 cells/mL for NSCLC cells and the nontumorigenic MRC-5 cell line and 1.0 × 10^5 cells/mL for colorectal cancer cells) and incubated at 37 °C for 24 h. […] The SRB assay was performed as previously described.[78],[79] Briefly, after fixing cells with 10% (w/v) ice-cold trichloroacetic acid (Merck Life Science), the proteins were stained with 0.4% of SRB (Merck Life Science) in acetic acid (Merck Life Science). Following washing steps in acetic acid, the bound dye was solubilized with 10 mM Tris base solution (Merck Life Science). Absorbance was measured at 510 nm in a multiplate reader (Synergy Mx, Biotek Instruments Inc., Winooski, Vermont, USA) using the Gen5 software (Biotek Instruments Inc.).

NCI-H460 [2] = experiment: SRB cell growth inhibition assay; type: cell-based; conditions: Homo sapiens, 48 h, NSCLC sensitive, mean ± SEM
Description: as §6, §7, §8

DLD1-TxR = experiment: SRB cell growth inhibition assay; type: cell-based, human; conditions: for selectivity ratio colorectal cancer: GI50 sensitive DLD1 / GI50 MDR DLD1-TxR; for GI50: Homo sapiens, 48 h, colorectal cancer MDR, mean ± SEM; for GI50 / GI50 concentration range against MDR DLD1-TxR: SRB assay; for GI50 concentration range against MDR DLD1-TxR: in words
Method: Two distinct pairs of counterpart drug-sensitive and MDR human tumor cell lines were used, namely the non-small lung cancer (NSCLC) NCI-H460 (same cell line as in the NCI screen) and its MDR counterpart cell line NCI-H460/R and the colorectal cancer DLD1 and its MDR counterpart cell line DLD1-TxR (Table 3). The screening was performed using the SRB assay, and the GI50 for each compound was determined by interpolation on the attained concentration−response curves and compared with NCI60 screening data (SI, Figures S62−S63; Table S21).
as §7, §8

COLO-205 = experiment: NCI60 five-dose GI50; type: cell-based; conditions: Homo sapiens, colon
Description: as §1, §2, §3, §4, §5

LOX-IMVI = experiment: NCI60 five-dose GI50; type: cell-based; conditions: Homo sapiens, melanoma
Description: as §1, §2, §3, §4, §5

MCF-7 = experiment: NCI60 five-dose GI50; type: cell-based; conditions: Homo sapiens, MCF7, breast
Description: as §1, §2, §3, §4, §5

OVCAR-3 = experiment: NCI60 five-dose GI50; type: cell-based; conditions: Homo sapiens, ovarian
Description: as §1, §2, §3, §4, §5

UACC-62 = experiment: NCI60 five-dose GI50; type: cell-based; conditions: Homo sapiens, melanoma
Description: as §1, §2, §3, §4, §5

Row | Structure (SMILES) | GI50 (DLD1) [nM] | GI50 (NCI-H460 [2]) [nM] | GI50 (DLD1-TxR) [nM] | GI50 concentration range against MDR DLD1-TxR (DLD1-TxR) | GI50 (NCI-H460 [1]) [nM] | selectivity ratio colorectal cancer (DLD1-TxR) | GI50 (COLO-205) [nM] | GI50 (LOX-IMVI) [nM] | GI50 (MCF-7) [nM] | GI50 (OVCAR-3) [nM] | GI50 (UACC-62) [nM]
1 | COC(=O)c1c2c(c(C)[n+]([O-])c1C)C(=O)C=C(NCc1ccccc1)C2=O [Compound 2] | 2330 ± 380 | 1430 ± 130 | 880 ± 90 | nanomolar range | 2740 | 2.7 |  |  |  |  | 
2 | COC(=O)c1c2c(c(C)[n+]([O-])c1C)C(=O)C=C(NCc1ccc(F)cc1)C2=O [Compound 5] | 1220 ± 140 | 560 ± 200 | 670 ± 50 | nanomolar range | 525 | 1.8 | 260 | 226 | 296 | 240 | 229
3 | COC(=O)c1c2c(c[n+]([O-])c1C)C(=O)C=CC2=O [Compound 23] | 30200 ± 4080 | 38000 ± 8320 | 14900 ± 680 |  | 12800 | 2 | 1850 | 1960 | 1650 | 320 | 1810
4 | COc1cccc2c1C(=O)c1c(O)c3c(c(O)c1C2=O)C[C@@](O)(C(=O)CO)C[C@@H]3O[C@H]1C[C@H](N)[C@H](O)[C@H](C)O1 [doxorubicin, reference compound] |  | 30 ± 10 |  |  |  |  |  |  |  |  | 

More lines, in order of falling GI50 (NCI-H460 [2]), values ahead:

Row | GI50 (DLD1) [nM] | GI50 (NCI-H460 [2]) [nM] | GI50 (DLD1-TxR) [nM] | GI50 concentration range against MDR DLD1-TxR (DLD1-TxR) | Structure (SMILES) | GI50 (NCI-H460 [1]) [nM] | selectivity ratio colorectal cancer (DLD1-TxR) | GI50 (COLO-205) [nM] | GI50 (LOX-IMVI) [nM] | GI50 (MCF-7) [nM] | GI50 (OVCAR-3) [nM] | GI50 (UACC-62) [nM]
5 | 9670 ± 1150 | 6020 ± 340 | 5930 ± 550 |  | COC(=O)c1c2c(c(C)[n+]([O-])c1C)C(=O)C(NCc1ccc(O)cc1)=CC2=O [Compound 20] | 1580 | 1.6 | 579 | 938 | 416 | 266 | 1360
6 | 5940 ± 300 | 2700 ± 300 | 3130 ± 100 |  | COC(=O)c1c2c(c(C)[n+]([O-])c1C)C(=O)C(NCc1ccc(F)cc1)=CC2=O [Compound 4] | 792 | 1.9 | 376 | 1940 | 1110 | 319 | 1250
7 | 1390 ± 170 | 750 ± 140 | 720 ± 30 | nanomolar range | COC(=O)c1c2c(c[n+]([O-])c1C)C(=O)C(NCc1ccccc1)=CC2=O [Compound 24] | 383 | 1.9 | 330 | 300 | 200 | 270 | 350
8 | 610 ± 110 | 350 ± 20 | 420 ± 30 | nanomolar range | COC(=O)c1c2c(c[n+]([O-])c1C)C(=O)C=C(NCc1ccccc1)C2=O [Compound 25] | 210 | 1.5 | 160 | 190 | 150 | 48 | 160
